Data reported in publication PMC7006505, “Chemical biology tools for probing transcytosis at the blood–brain barrier” (Chemical Science, 2019).
Bridge positions count the residues as written; N and C are the ends. Square brackets hold non-standard residues; d marks the D form. Triazole bridges read from a SMILES are 1,4-linked. Ends that are not written are not given here. I, II: the chains in the order shown. * marks the point of attachment. 5FAM = O=C1OC2(c3ccc(O)cc3Oc3cc(O)ccc32)c2ccc(C(=O)*)cc21; Lys(N3) = [N-]=[N+]=NCCCC[C@H](N)C(=O)O; Pra = C#CC[C@H](N)C(=O)O

System: bEnd.3/MSC co-culture
Experiment: Transcytosis assay, transwell in vitro BBB model with dex-TexR correction (cPapp)
Assay type: in vitro ADME, mouse
Settings: apical to basolateral; for fold increase in permeability (cPapp) relative to Tf-A647: bEnd.3/MSC co-culture on polyester transwell inserts (0.4 µm pore), 0.5 µM vehicle with 5 µM dex-TexR (3000 Da), DMEM without FCS after 1 h serum starvation, three inserts with and without culture, paracellular contribution subtracted; for fold increase in permeability (cPapp) relative to Tf-A647 / cPapp at 4 °C: fluorescence read-out; for cPapp at 4 °C: FAM-labelled vehicle co-incubated with dex-TexR, corrected for paracellular diffusion
From the text: To study transcytosis potential of the vehicles in vitro we optimised a BBB model using a 3D-transwell format. […] This is similar to results shown by others.[16] Immunostaining for TJ protein ZO-1 in the bEnd.3 cell line confirmed its presence and trafficking towards the cell junctions (Fig. S7 ^†).
It seemed plausible that a similar sized marker (such as TexasRed labelled dextran (dex-TexR; 3000 g mol^–1)) that is incapable of AMT or RMT uptake could serve as an internal standard to quantify paracellular contribution of the vehicles. As exemplified in Fig. 4A, experiments are performed in parallel with probes (both dex-TexR and FAM-PPII vehicle or Tf-A647) fed to insets containing either the cell monolayer (PSt) or filter alone (PSf). The corresponding Papp for dex-TexR in both scenarios is first calculated and the extent in which movement is reduced by presence of the monolayer (defined here as the transport ratio (TR)) is used to determine the expected paracellular diffusion rate of the individual vehicles. We employed Tf-A647 and a similarly sized TexasRed labelled dextran (dex-TexR; 70 000 g mol^–1) as a positive control for transcytosis. […] When incubated in the presence of cells, dex-TexR was detected in the basolateral compartment indicating background paracellular flux. However, Tf-A647 was cleared at a faster rate in comparison, confirming transcytosis of the molecule.
Fig. 4 Modified workflow and results for determining the cPapp of a macromolecule, accounting for contributions made by paracellular diffusion across an in vitro barrier. […] (B–C) Clearance plots obtained by incubation of Tf-A647 or dex-TexR with filters alone (B; PSf) or with cells (C; PSt). […] Division of PSt/PSf for dextran generates the transport ratio (TR). Expected paracellular contribution of the vehicle is obtained by multiplying TR by the Papp of the compound of interest without cells. cPapp values are obtained by subtracting this value from Papp of compound with cells. Key: red = dex-TexR; blue = Tf-A647; dashed lines = filter insert only; solid lines = transwell culture (D) cPapp values for delivery vehicles screened in the transcytosis assay.
(3 × 1 mL), and trypsinisation was conducted using a solution of 0.25 % (w/v) trypsin-EDTA solution (0.5 mL, 3 min, 37 °C, 5 % CO2 incubation), unless otherwise specified. When required, a Scan Speed 1580R centrifuge (Labmode) was used to pellet cell suspensions. All tissue culture work was performed in sterilised Corning well plates, and cell based assays used DMEM media (ThermoFisher, #31053028) without FCS and phenol red, unless otherwise specified. bEND.3 cells were a gift from Rachael Brown (Kings College London), while MSC cells were a gift from the Battaglia group (University College London).
Cells were maintained in high glucose Dulbecco’s Modified Eagle’s Medium (DMEM) (ATCC #30-2002) supplemented with 10 % FCS. Cells were sub-cultured routinely using trypsin solution once 100 % confluence was achieved. For uptake and transcytosis studies, cells under passage number 30 were used. After this time, these cells may begin to lose their barr ier functionality, as identified from an extensive study performed by Brown et al.1 Mesenchymal stem cells (MSC)
MSC, as surrogates for pericytes, were maintained in DMEM/F12 medium containing GlutaMAX and L-glutamine (2 mM) (ThermoFisher, #10565-018), supplemented with 10 % FCS and 5 μg/mL Gentamicin (SIGMA, G1397). Cultures were sub -cultured routinely using trypsin solution once 70 -80 % confluence was achieved.
For all transcytosis assays, polyester filter inserts (Corning, #3460; 0.4 µm pore, 12 mm diameter, 10 µm thick) were used in 12-well cell culture plates. Optimum media volumes were calculated to be 950 µL and 475 µL for apical and basolateral chambers respectively. Both chambers were coated with rat tail collagen (5 µg/cm2) for 2 h at room temperature prior to use. bEND.3 cells were seeded at a density of 2 × 10^4 cells/well onto insets, and grown to […]

| Compound | fold increase in permeability (cPapp) relative to Tf-A647 (37 °C) [fold] | transcytosis / permeability in BBB model, in words (bEnd.3/MSC transwell, 0.5 µM vehicle, 37 °C, cPapp) | cPapp at 4 °C (bEnd.3/MSC transwell) [cm/min x 10^-5] |
| --- | --- | --- | --- |
| I: 5FAM-VR[Pra]PPPVRLPPP[Pra]RLPPP-NH2 / II: [Lys(N3)]THRPPMWSPVWP-NH2 / III: [Lys(N3)]THRPPMWSPVWP-NH2 (triazole I:3-III:1, I:13-II:1) [PPII(L3X;V13X)TfRL1] | 3.5 | – | – |
| CC(C)C[C@H](NC(=O)[C@H](CCCNC(=N)N)NC(=O)[C@@H](NC(=O)[C@@H]1CCCN1C(=O)[C@@H]1CCCN1C(=O)[C@@H]1CCCN1C(=O)[C@H](Cc1cn(CCCC[C@H](N)C(=O)N[C@H](C(=O)N[C@@H](Cc2ccccc2)C(=O)N[C@@H](Cc2ccccc2)C(=O)N[C@@H](Cc2ccc(O)cc2)C(=O)NCC(=O)NCC(=O)N[C@@H](CO)C(=O)N[C@@H](CCCNC(=N)N)C(=O)NCC(=O)N[C@@H](CCCCN)C(=O)N[C@@H](CCCNC(=N)N)C(=O)N[C@@H](CC(N)=O)C(=O)N[C@@H](CC(N)=O)C(=O)N[C@@H](Cc2ccccc2)C(=O)N[C@@H](CCCCN)C(=O)N[C@H](C(=O)N[C@@H](CCC(=O)O)C(=O)N[C@@H](CCC(=O)O)C(=O)N[C@@H](Cc2ccc(O)cc2)C(N)=O)[C@@H](C)O)[C@@H](C)O)nn1)NC(=O)[C@H](CCCNC(=N)N)NC(=O)[C@@H](NC(=O)c1ccc2c(c1)C(=O)OC21c2ccc(O)cc2Oc2cc(O)ccc21)C(C)C)C(C)C)C(=O)N1CCC[C@H]1C(=O)N1CCC[C@H]1C(=O)N1CCC[C@H]1C(=O)N[C@H](C(=O)N[C@@H](CCCNC(=N)N)C(=O)N[C@@H](Cc1cn(CCCC[C@H](N)C(=O)N[C@H](C(=O)N[C@@H](Cc2ccccc2)C(=O)N[C@@H](Cc2ccccc2)C(=O)N[C@@H](Cc2ccc(O)cc2)C(=O)NCC(=O)NCC(=O)N[C@@H](CO)C(=O)N[C@@H](CCCNC(=N)N)C(=O)NCC(=O)N[C@@H](CCCCN)C(=O)N[C@@H](CCCNC(=N)N)C(=O)N[C@@H](CC(N)=O)C(=O)N[C@@H](CC(N)=O)C(=O)N[C@@H](Cc2ccccc2)C(=O)N[C@@H](CCCCN)C(=O)N[C@H](C(=O)N[C@@H](CCC(=O)O)C(=O)N[C@@H](CCC(=O)O)C(=O)N[C@@H](Cc2ccc(O)cc2)C(N)=O)[C@@H](C)O)[C@@H](C)O)nn1)C(=O)N1CCC[C@H]1C(=O)N1CCC[C@H]1C(=O)N1CCC[C@H]1C(N)=O)C(C)C [PPII(L3X;L15X)APep2] | – | limited transcytosis | – |
| CC[C@H](C)[C@H](NC(=O)[C@H](C)NC(=O)[C@@H](N)Cc1c[nH]cn1)C(=O)N[C@@H](Cc1ccc(O)cc1)C(=O)N1CCC[C@H]1C(=O)N[C@@H](CCCNC(=N)N)C(=O)N[C@@H](Cc1c[nH]cn1)C(=O)NCCCC[C@H](NC(=O)[C@H](CCCNC(=N)N)NC(=O)[C@@H](NC(=O)[C@@H]1CCCN1C(=O)[C@@H]1CCCN1C(=O)[C@@H]1CCCN1C(=O)[C@H](CC(C)C)NC(=O)[C@H](CCCNC(=N)N)NC(=O)[C@@H](NC(=O)[C@@H]1CCCN1C(=O)[C@@H]1CCCN1C(=O)[C@@H]1CCCN1C(=O)[C@H](Cc1cn(CCCC[C@H](N)C(=O)N[C@H](C(=O)N[C@@H](Cc2ccccc2)C(=O)N[C@@H](Cc2ccccc2)C(=O)N[C@@H](Cc2ccc(O)cc2)C(=O)NCC(=O)NCC(=O)N[C@@H](CO)C(=O)N[C@@H](CCCNC(=N)N)C(=O)NCC(=O)N[C@@H](CCCCN)C(=O)N[C@@H](CCCNC(=N)N)C(=O)N[C@@H](CC(N)=O)C(=O)N[C@@H](CC(N)=O)C(=O)N[C@@H](Cc2ccccc2)C(=O)N[C@@H](CCCCN)C(=O)N[C@H](C(=O)N[C@@H](CCC(=O)O)C(=O)N[C@@H](CCC(=O)O)C(=O)N[C@@H](Cc2ccc(O)cc2)C(N)=O)[C@@H](C)O)[C@@H](C)O)nn1)NC(=O)[C@H](CCCNC(=N)N)NC(=O)[C@@H](NC(=O)c1ccc2c(c1)C(=O)OC21c2ccc(O)cc2Oc2cc(O)ccc21)C(C)C)C(C)C)C(C)C)C(=O)N1CCC[C@H]1C(=O)N1CCC[C@H]1C(=O)N1CCC[C@H]1C(N)=O [PPII(L3X;L15K)TfRL2(K);APep2(X)] | 1.8 | – | – |
| CC(C)C[C@H](NC(=O)[C@H](CCCNC(=N)N)NC(=O)[C@@H](NC(=O)[C@@H]1CCCN1C(=O)[C@@H]1CCCN1C(=O)[C@@H]1CCCN1C(=O)[C@H](CC(C)C)NC(=O)[C@H](Cc1cn(CCCC[C@H](N)C(=O)N[C@H](C(=O)N[C@@H](Cc2ccccc2)C(=O)N[C@@H](Cc2ccccc2)C(=O)N[C@@H](Cc2ccc(O)cc2)C(=O)NCC(=O)NCC(=O)N[C@@H](CO)C(=O)N[C@@H](CCCNC(=N)N)C(=O)NCC(=O)N[C@@H](CCCCN)C(=O)N[C@@H](CCCNC(=N)N)C(=O)N[C@@H](CC(N)=O)C(=O)N[C@@H](CC(N)=O)C(=O)N[C@@H](Cc2ccccc2)C(=O)N[C@@H](CCCCN)C(=O)N[C@H](C(=O)N[C@@H](CCC(=O)O)C(=O)N[C@@H](CCC(=O)O)C(=O)N[C@@H](Cc2ccc(O)cc2)C(N)=O)[C@@H](C)O)[C@@H](C)O)nn1)NC(=O)[C@@H](NC(=O)[C@@H]1CCCN1C(=O)[C@@H]1CCCN1C(=O)[C@@H]1CCCN1C(=O)[C@H](CC(C)C)NC(=O)[C@H](CCCNC(=N)N)NC(=O)[C@@H](NC(=O)c1ccc2c(c1)C(=O)OC21c2ccc(O)cc2Oc2cc(O)ccc21)C(C)C)C(C)C)C(C)C)C(=O)N1CCC[C@H]1C(=O)N1CCC[C@H]1C(=O)N1CCC[C@H]1C(N)=O [PPII(R8X)APep2] | 4.9 | – | -0.058 |
| I: 5FAM-VR[Pra]PPPVRLPPPVR[Pra]PPP-NH2 / II: [Lys(N3)]THRPPMWSPVWP-NH2 / III: [Lys(N3)]THRPPMWSPVWP-NH2 (triazole I:3-III:1, I:15-II:1) [PPII(L3X;L15X)TfRL1] | 3.0 | – | -0.079 |
| CC[C@H](C)[C@H](NC(=O)[C@H](C)NC(=O)[C@H](Cc1c[nH]cn1)NC(=O)[C@@H](N)CCCCn1cc(C[C@H](NC(=O)[C@@H](NC(=O)[C@@H]2CCCN2C(=O)[C@@H]2CCCN2C(=O)[C@@H]2CCCN2C(=O)[C@H](CC(C)C)NC(=O)[C@H](CCCNC(=N)N)NC(=O)[C@@H](NC(=O)c2ccc3c(c2)C(=O)OC32c3ccc(O)cc3Oc3cc(O)ccc32)C(C)C)C(C)C)C(=O)N[C@@H](CC(C)C)C(=O)N2CCC[C@H]2C(=O)N2CCC[C@H]2C(=O)N2CCC[C@H]2C(=O)N[C@H](C(=O)N[C@@H](CCCNC(=N)N)C(=O)N[C@@H](CC(C)C)C(=O)N2CCC[C@H]2C(=O)N2CCC[C@H]2C(=O)N2CCC[C@H]2C(N)=O)C(C)C)nn1)C(=O)N[C@@H](Cc1ccc(O)cc1)C(=O)N1CCC[C@H]1C(=O)N[C@@H](CCCNC(=N)N)C(=O)N[C@@H](Cc1c[nH]cn1)C(N)=O [PPII(R8X)TfRL2] | 1.4 | – | -0.085 |
| Tf-A647: human derived AlexaFluor 647-conjugated transferrin [reference compound] | – | – | 0.09 |
